# Source: PMC3013012 (The Journal of Biological Chemistry, 2010)
# Square brackets hold non-standard residues; d marks the D form. Peptide text beside a SMILES is read from it. Lys(Me3) = C[N+](C)(C)CCCC[C@H](N)C(=O)O; Lys(Me2) = CN(C)CCCC[C@H](N)C(=O)O
# Tests used:
# human Cbx7 chromodomain = target: T1, human Cbx7 chromodomain (Homo sapiens, UniProt O95931); assay: Fluorescence polarization peptide binding
# T1 sequence (O95931 8-62): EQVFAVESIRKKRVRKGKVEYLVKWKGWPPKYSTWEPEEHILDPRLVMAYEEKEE
# human Cbx8 chromodomain = target: T2, human Cbx8 chromodomain (Homo sapiens, UniProt Q9HC52); assay: Fluorescence polarization peptide binding
# T2 sequence (Q9HC52 8-61): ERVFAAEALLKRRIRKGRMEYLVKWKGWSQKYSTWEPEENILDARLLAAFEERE
SMILES,Kd (human Cbx7 chromodomain) [µM],Kd (human Cbx8 chromodomain) [µM]
CC[C@H](C)[C@H](NC(=O)CNC(=O)[C@@H](N)Cc1c[nH]cn1)C(=O)N[C@@H](C)C(=O)N[C@H](C(=O)N[C@@H](CCCC[N+](C)(C)C)C(=O)N[C@@H](CO)C(=O)N[C@H](C(=O)N[C@@H](CC(N)=O)C(=O)O)[C@@H](C)O)[C@@H](C)CC [IAIK(1178)S] (H-HGIAI[Lys(Me3)]STN-OH),5 ± 0.8,
"CC[C@H](C)[C@H](NC(=O)CNC(=O)[C@H](Cc1c[nH]cn1)NC(=O)[C@@H](NC(=O)[C@H](CO)NC(=O)[C@H](CCCCN(C)C)NC(=O)[C@H](CC(C)C)NC(=O)[C@H](C)NC(=O)[C@H](Cc1ccccc1)NC(=O)CNC(=O)[C@H](CCCNC(=N)N)NC(=O)[C@@H](NC(=O)[C@H](CO)NC(=O)[C@H](CCCCN(C)C)NC(=O)[C@@H](NC(=O)[C@H](C)NC(=O)[C@@H](NC(=O)[C@H](CCC(N)=O)NC(=O)[C@@H](N)CCCNC(=N)N)C(C)C)C(C)C)[C@@H](C)O)[C@@H](C)O)C(=O)N[C@@H](C)C(=O)N[C@H](C(=O)N[C@@H](CCCCN(C)C)C(=O)N[C@@H](CO)C(=O)N[C@H](C(=O)N[C@@H](CC(N)=O)C(=O)O)[C@@H](C)O)[C@@H](C)CC [Kme2(1162,1170,1178)] (H-RQVAV[Lys(Me2)]STRGFAL[Lys(Me2)]STHGIAI[Lys(Me2)]STN-OH)",15 ± 0.5,180 ± 80
"CC[C@H](C)[C@H](NC(=O)CNC(=O)[C@H](Cc1c[nH]cn1)NC(=O)[C@@H](NC(=O)[C@H](CO)NC(=O)[C@H](CCCC[N+](C)(C)C)NC(=O)[C@H](CC(C)C)NC(=O)[C@H](C)NC(=O)[C@H](Cc1ccccc1)NC(=O)CNC(=O)[C@H](CCCNC(=N)N)NC(=O)[C@@H](NC(=O)[C@H](CO)NC(=O)[C@H](CCCC[N+](C)(C)C)NC(=O)[C@@H](NC(=O)[C@H](C)NC(=O)[C@@H](NC(=O)[C@H](CCC(N)=O)NC(=O)[C@@H](N)CCCNC(=N)N)C(C)C)C(C)C)[C@@H](C)O)[C@@H](C)O)C(=O)N[C@@H](C)C(=O)N[C@H](C(=O)N[C@@H](CCCC[N+](C)(C)C)C(=O)N[C@@H](CO)C(=O)N[C@H](C(=O)N[C@@H](CC(N)=O)C(=O)O)[C@@H](C)O)[C@@H](C)CC [Kme3(1162,1170,1178)] (H-RQVAV[Lys(Me3)]STRGFAL[Lys(Me3)]STHGIAI[Lys(Me3)]STN-OH)",1.2 ± 0.2,6 ± 2
